These results are taken from ChEMBL document CHEMBL1133444, “N-cycloalkyl derivatives of adenosine and 1-deazaadenosine as agonists and partial agonists of the A(1) adenosine receptor” (J Med Chem, 2000).

The target in assay [1] is T1, Adenosine receptor A1 (Rattus norvegicus) (UniProt P25099).
T1 sequence (whole entry): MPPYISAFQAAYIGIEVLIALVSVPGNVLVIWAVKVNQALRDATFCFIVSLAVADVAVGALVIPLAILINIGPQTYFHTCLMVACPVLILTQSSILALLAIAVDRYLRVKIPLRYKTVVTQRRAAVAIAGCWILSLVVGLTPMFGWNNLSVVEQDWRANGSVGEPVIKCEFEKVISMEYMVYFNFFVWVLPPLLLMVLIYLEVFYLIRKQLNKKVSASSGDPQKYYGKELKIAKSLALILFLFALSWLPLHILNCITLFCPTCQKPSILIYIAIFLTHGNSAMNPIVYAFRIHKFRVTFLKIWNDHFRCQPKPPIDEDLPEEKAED
Description: Percent relative intrinsic activity with reference to CCPA.

Assay [2] addresses T2, Adenosine receptor A1 (Rattus norvegicus, UniProt P25099).
T2 sequence (P25099 whole entry): T1 sequence (whole entry)

Assay [3] addresses T2, Adenosine receptor A1. Description: Binding affinity for adenosine A1 receptor, was assessed from the ability to displace [3H]-DPCPX (without GTP) from rat cortical membranes.
For assay [4], the target named is T2, Adenosine receptor A1. Description: Stimulation of [35S]GTP-gamma-S, binding to rat brain membranes by adenosine A1 receptor activation. The class given is functional, cell membranes, Membrane.
The target of assay [5] is T1, Adenosine receptor A1 (Rattus norvegicus).
Description: Binding affinity for adenosine A1 receptor, was assessed from the ability to displace [3H]DPCPX (without GTP) from rat cortical membranes, activity expressed as KH (affinity for the high-affinity state)
Assay [6] shares this target. This is another data set of the same source.
Description: Binding affinity for adenosine A1 receptor, was assessed from the ability to displace [3H]DPCPX (without GTP) from rat cortical membranes, activity expressed as KL (affinity for the low-affinity state)
For assay [7] the target is unchanged. The source holds these as a separate data set.
The target of assay [8] is T2, Adenosine receptor A1. Description: Binding affinity for adenosine A1 receptor was assayed by displacement of [3H]DPCPX from rat cortical membranes. The class given is cell membranes, Membrane.
The target in the next assay is Adenosine receptor A2a (Rattus norvegicus, UniProt P30543). Description: Binding affinity for adenosine A2A receptor was determined by displacement of [3H]CGS 21680 from rat striatal membranes.
The nature of assay [9]: % of the receptors in the high affinity state.
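Wherever KH is given: displacement of [3H]DPCPX binding from rat cortical membranes in the absence of GTP, KH giving affinity for the high-affinity receptor state.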
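Wherever KL is given: displacement of [3H]DPCPX from rat cortical membranes, assayed without GTP, with KL giving affinity for the low-affinity state of the receptor.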

Sequence of Adenosine receptor A2a (P30543 whole entry): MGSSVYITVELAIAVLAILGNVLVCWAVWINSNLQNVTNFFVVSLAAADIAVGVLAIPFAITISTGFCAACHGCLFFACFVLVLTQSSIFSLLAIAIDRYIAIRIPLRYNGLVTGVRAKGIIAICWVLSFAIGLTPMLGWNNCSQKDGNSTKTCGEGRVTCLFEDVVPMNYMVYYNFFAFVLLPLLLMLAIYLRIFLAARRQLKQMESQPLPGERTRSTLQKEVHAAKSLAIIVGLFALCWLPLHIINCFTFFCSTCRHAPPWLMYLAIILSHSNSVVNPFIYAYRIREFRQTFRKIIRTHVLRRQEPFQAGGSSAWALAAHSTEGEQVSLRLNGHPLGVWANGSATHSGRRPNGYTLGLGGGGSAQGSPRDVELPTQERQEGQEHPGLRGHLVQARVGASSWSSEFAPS

In assay [1], `OC[C@H]1O[C@@H](n2cnc3c(NC4CC4)nc(Cl)nc32)C[C@@H]1O` returned an RIA of 20.8%. For the same molecule, the inhibitory constant (Ki) at Adenosine receptor A1 [2] was 14.3 µM; at Adenosine receptor A1 [3] it was 724 nM. Further, on Adenosine receptor A1 [4], a half-maximal effect (EC50) was put at 6180 nM. The same molecule gave a KH in assay [5] of 115 nM. In assay [6], the KL is 6.03 µM.

As for `OC[C@H]1O[C@@H](n2cnc3c(NC4CCCCCC4)nc(Cl)nc32)C[C@@H]1O`, the results for the Ki on Adenosine receptor A1 [2] and at Adenosine receptor A1 [3] were 1.09 µM and 369 nM, respectively. The same molecule came in with a KH in assay [5] of 30.7 nM. In assay [6], this molecule returned a KL of 0.752 µM. For the same molecule, the RIA in assay [7] is 0.

As to `OC[C@H]1O[C@@H](n2cnc3c(NC4CCC4)nc(Cl)nc32)[C@H](O)[C@@H]1O`, the figures for the Ki at Adenosine receptor A1 [8] and at Adenosine receptor A2a were 5.3 nM and 0.46 µM, respectively.

As for `OC[C@H]1O[C@@H](n2cnc3c(NC4CC4)ncnc32)[C@H](O)[C@@H]1O`, the inhibition constant (Ki) was 26.7 nM on Adenosine receptor A1 [8] and 0.51 µM at Adenosine receptor A2a. At Adenosine receptor A1 [4], this molecule showed an EC50 of 709 nM.

Regarding `OC[C@H]1O[C@@H](n2cnc3c(NC4CCCCC4)ccnc32)[C@H](O)[C@@H]1O`, the Ki is 169 nM on Adenosine receptor A1 [8] and 5.12 µM on Adenosine receptor A2a.

As for `OC[C@H]1O[C@@H](n2cnc3c(NC4CCCC4)ncnc32)[C@H](O)[C@@H]1O` [N6-CYCLOPENTYLADENOSINE], the affinity on Adenosine receptor A2a corresponds to a Ki of 3.37 µM.

Consider `OC[C@H]1O[C@@H](n2cnc3c(NC4CCCCCCC4)nc(Cl)nc32)C[C@@H]1O`, for which the Ki on Adenosine receptor A1 [2] is 1.41 µM; at Adenosine receptor A1 [3] it was 659 nM. Moreover, the RHA in assay [9] is 14.5%. This molecule yielded a KH in assay [5] of 23.6 nM. In [6], this molecule had a KL of 1.02 µM. This molecule also gave an RIA in assay [7] of 0.

For the molecule `OC[C@H]1O[C@@H](n2cnc3c(NC4CCCC4)nc(Cl)nc32)C[C@@H]1O`, the figures for the Ki at Adenosine receptor A1 [2] and on Adenosine receptor A1 [3] were 1.32 µM and 154 nM, respectively. This molecule showed an EC50 on Adenosine receptor A1 [4] of 1560 nM. Further, in assay [5], the KH was determined as 18.5 nM. The KL in [6] worked out at 0.8 µM. The molecule also came in with an RIA in assay [7] of 8.3.

For `OC[C@H]1OC(n2cnc3c(NC4CCCCCCC4)cc(Cl)nc32)[C@H](O)[C@@H]1O` (some centres not stated), the Ki on Adenosine receptor A1 [8] came out at 595 nM; at Adenosine receptor A2a it was 20 µM.

On to `OC[C@H]1O[C@@H](n2cnc3c(NC4CCCC4)cc(Cl)nc32)[C@H](O)[C@@H]1O`, for which the inhibition constant (Ki) worked out at 49 nM at Adenosine receptor A1 [8] and 2.84 µM on Adenosine receptor A2a. The same molecule gave a 50% effective concentration (EC50) at Adenosine receptor A1 [4] of 408 nM.

For the molecule `OC[C@H]1O[C@@H](n2cnc3c(NC4CC4)ncnc32)C[C@@H]1O`, in [7], the RIA was 0.

On to `OC[C@H]1O[C@@H](n2cnc3c(NC4CCCCCCC4)ncnc32)[C@H](O)[C@@H]1O`, for which the inhibition constant (Ki) on Adenosine receptor A1 [8] was found to be 53.5 nM; at Adenosine receptor A2a, 4.18 µM.

With `OC[C@H]1O[C@@H](n2cnc3c(NC4CCCCCC4)cc(Cl)nc32)[C@@H](O)C1O` (some centres not stated), the Ki was determined as 247 nM at Adenosine receptor A1 [8] and 4.87 µM on Adenosine receptor A2a. This molecule also yielded a 50% effective concentration (EC50) on Adenosine receptor A1 [4] of 6580 nM.

Take `OC[C@H]1O[C@@H](n2cnc3c(NC4CCCCCC4)ncnc32)[C@H](O)[C@@H]1O`: the Ki at Adenosine receptor A1 [8] came to 19.6 nM; at Adenosine receptor A2a it was 3.15 µM. In addition, a half-maximal response at Adenosine receptor A1 [4] (EC50) required 86.4 nM.

As for `OC[C@H]1O[C@@H](n2cnc3c(NC4CCCC4)ccnc32)[C@H](O)[C@@H]1O`, the inhibition constant (Ki) came out at 100 nM at Adenosine receptor A1 [8] and 10.1 µM on Adenosine receptor A2a. Besides, the response on Adenosine receptor A1 [4] was half-maximal at 475 nM (EC50).

`OC[C@H]1O[C@@H](n2cnc3c(NC4CCCCCCC4)ncnc32)C[C@@H]1O`: the inhibition constant Ki at Adenosine receptor A1 [2] is 9.31 µM; at Adenosine receptor A1 [3], 586 nM. The same molecule showed an RHA in assay [9] of 45.9%. The KH in assay [5] was 84.9 nM. The KL in assay [6] stood at 4.19 µM. Also, the RIA in assay [7] was determined as 0.

Turning to `OC[C@H]1O[C@@H](n2cnc3c(NC4CCCCC4)ncnc32)C[C@@H]1O`, the inhibition constant Ki at Adenosine receptor A1 [2] came out at 16.7 µM; at Adenosine receptor A1 [3] it was 412 nM. Also, the response on Adenosine receptor A1 [4] was half-maximal at 9640 nM (EC50). In addition, the KH in [5] was determined as 92.5 nM. In assay [6], this molecule came in with a KL of 7.33 µM. In assay [7], this molecule gave an RIA of 40.1.

In the case of `OC[C@H]1O[C@@H](n2cnc3c(NC4CCC4)cc(Cl)nc32)[C@H](O)[C@@H]1O`, the inhibitory constant (Ki) on Adenosine receptor A1 [8] amounted to 41 nM; on Adenosine receptor A2a it was 3.11 µM.

Turning to `OC[C@H]1O[C@@H](n2cnc3c(NC4CCCCC4)nc(Cl)nc32)[C@H](O)[C@@H]1O`, the Ki at Adenosine receptor A1 [8] came to 31.7 nM; at Adenosine receptor A2a, 0.59 µM.

`OC[C@H]1OC(n2cnc3c(NC4CCCCCC4)nc(Cl)nc32)[C@H](O)[C@@H]1O` (some centres not stated): the Ki at Adenosine receptor A1 [8] came out at 37.9 nM; on Adenosine receptor A2a, 1.1 µM. This molecule displayed a half-maximal effective concentration (EC50) on Adenosine receptor A1 [4] of 431 nM.

For `OC[C@H]1O[C@@H](n2cnc3c(NC4CC4)cc(Cl)nc32)[C@H](O)[C@@H]1O`, the Ki amounted to 151 nM on Adenosine receptor A1 [8] and 9.64 µM at Adenosine receptor A2a. Further, the EC50 at Adenosine receptor A1 [4] amounted to 704 nM.

`OC[C@H]1O[C@@H](n2cnc3c(NC4CCCCCC4)ncnc32)C[C@@H]1O`: the values for the Ki on Adenosine receptor A1 [2] and on Adenosine receptor A1 [3] were 20.4 µM and 769 nM, respectively. At Adenosine receptor A1 [4], this molecule showed a 50% effective concentration (EC50) of 13700 nM. For the same molecule, the KH in assay [5] was determined as 124 nM. In assay [6], this molecule showed a KL of 7.41 µM. The RIA in assay [7] was found to be 24.9.

Regarding `OC[C@H]1O[C@@H](n2cnc3c(NC4CC4)ccnc32)[C@H](O)[C@@H]1O`, the Ki came to 326 nM on Adenosine receptor A1 [8] and 16.4 µM on Adenosine receptor A2a. For the same molecule, the EC50 on Adenosine receptor A1 [4] is 1530 nM.

For the molecule `OC[C@H]1O[C@@H](n2cnc3c(NC4CCC4)nc(Cl)nc32)C[C@@H]1O`, the figures for the Ki on Adenosine receptor A1 [2] and at Adenosine receptor A1 [3] were 3.6 µM and 245 nM, respectively. The half-maximal effective concentration (EC50) at Adenosine receptor A1 [4] was determined as 3710 nM. The molecule also displayed a KH in assay [5] of 33.3 nM. The molecule further yielded a KL in assay [6] of 1.92 µM. The molecule also showed an RIA in assay [7] of 19.5.

Turning to `OC[C@H]1OC(n2cnc3c(NC4CCCCCC4)ccnc32)[C@H](O)[C@@H]1O` (some centres not stated), the inhibitory constant (Ki) was found to be 364 nM at Adenosine receptor A1 [8] and 9.2 µM on Adenosine receptor A2a. For the same molecule, the EC50 on Adenosine receptor A1 [4] is 6360 nM.

Turning to `OC[C@H]1O[C@@H](n2cnc3c(NC4CCC4)ccnc32)[C@H](O)[C@@H]1O`, the Ki stood at 109 nM on Adenosine receptor A1 [8] and 6.55 µM on Adenosine receptor A2a.

For the molecule `OC[C@H]1O[C@@H](n2cnc3c(NC4CCCC4)ncnc32)C[C@@H]1O`, the Ki turned out to be 10.2 µM at Adenosine receptor A1 [2] and 212 nM at Adenosine receptor A1 [3]. This molecule showed an EC50 on Adenosine receptor A1 [4] of 5760 nM. Further, the KH in assay [5] was determined as 39.3 nM. The KL in assay [6] is 3.52 µM. In addition, the RIA in assay [7] came out at 42.1.

For `OC[C@H]1O[C@@H](n2cnc3c(NC4CCC4)ncnc32)[C@H](O)[C@@H]1O`, the figures for the Ki on Adenosine receptor A1 [8] and at Adenosine receptor A2a were 3.92 nM and 0.42 µM, respectively.

Regarding `OC[C@H]1O[C@@H](n2cnc3c(NC4CCCCC4)nc(Cl)nc32)C[C@@H]1O`, the inhibitory constant (Ki) at Adenosine receptor A1 [2] was found to be 2.56 µM; at Adenosine receptor A1 [3], 497 nM. The KH in [5] was determined as 61.7 nM. Moreover, in assay [6], the KL was 1.59 µM. For the same molecule, the RIA in assay [7] is 0.

Regarding `OC[C@H]1OC(n2cnc3c(NC4CCCCCCC4)ccnc32)[C@H](O)[C@@H]1O` (some centres not stated), the values for the inhibition constant (Ki) at Adenosine receptor A1 [8] and on Adenosine receptor A2a were 539 nM and 13.7 µM, respectively.

Consider `OC[C@H]1OC(n2cnc3c(NC4CCCCCCC4)nc(Cl)nc32)[C@H](O)[C@@H]1O` (some centres not stated), for which the Ki was determined as 122 nM on Adenosine receptor A1 [8] and 4.23 µM at Adenosine receptor A2a.

Take `OC[C@H]1O[C@@H](n2cnc3c(NC4CCC4)ncnc32)C[C@@H]1O`: the Ki at Adenosine receptor A1 [2] turned out to be 23.6 µM; on Adenosine receptor A1 [3] it was 524 nM. Also, on Adenosine receptor A1 [4], the EC50 is 5110 nM. The same molecule returned a KH in assay [5] of 121 nM. Moreover, the KL in [6] came to 8.3 µM. The molecule further had an RIA in assay [7] of 33.8.

On to `OC[C@H]1O[C@@H](n2cnc3c(NC4CCCCC4)cc(Cl)nc32)[C@H](O)[C@@H]1O`, for which the figures for the Ki on Adenosine receptor A1 [8] and on Adenosine receptor A2a were 268 nM and 5.21 µM, respectively.

In turn, `OC[C@H]1O[C@@H](n2cnc3c(NC4CC4)nc(Cl)nc32)[C@H](O)[C@@H]1O` had a concentration for a half-maximal effect (EC50) at Adenosine receptor A1 [4] of 57.3 nM. Moreover, affinity at Adenosine receptor A2a was put at a Ki of 2.06 µM.
